Test results from patent US20120142645A1, “NEUROACTIVE STEROID COMPOSITIONS AND METHODS OF USE FOR LOWERING CHOLESTEROL” (priority 2009, published 2012).

Tested on: patients with schizophrenia or schizoaffective disorder
Assay: MATRICS/MCCB cognitive battery; same 8-week adjunctive pregnenolone trial
Format: in vivo, human
Settings: for MATRICS/MCCB Composite score: head prints Raw Scores; for MATRICS/MCCB Composite score / MATRICS/MCCB BACS, symbol coding subtest raw score / MATRICS/MCCB Brief Visuospatial Memory Test-Rev. raw score / MATRICS/MCCB Category fluency test, animal naming raw score / MATRICS/MCCB Continuous Performance Test (CPT), Identical Pairs version-Average d′ raw score / MATRICS/MCCB Hopkins Verbal Learning Test raw score / MATRICS/MCCB Letter-Number Span test raw score / MATRICS/MCCB Mayer-Salovey-Caruso Emotional Intelligence Test, managing emotions branch raw score / MATRICS/MCCB Neuropsychological Assessment Battery, mazes subtest raw score / MATRICS/MCCB Trail Making Test, Part A raw score / MATRICS/MCCB Wechsler Memory Scale, 3rd ed., spatial span subtest raw score: mean, n = 9; for MATRICS/MCCB Composite, difference PG vs placebo in T-score change: column head prints Placebo
Procedure: Study Design and Subjects. Disclosed herein is a placebo-controlled, double-blind, parallel group, randomized trial of adjunctive pregnenolone for the treatment of cognitive and negative symptoms in patients with schizophrenia or schizoaffective disorder. […] Patients received a total of 6 study visits, which took place every two weeks. […] The trial was conducted at a single site, the Durham Veterans Affairs Medical Center in Durham, N.C. The protocol was approved by the local institutional review board and conducted under FDA Investigational New Drug (IND) #71,768. The ClinicalTrials.gov number for this study is NCT00560937.
Cognitive symptoms were assessed by the Brief Assessment of Cognition in Schizophrenia (BAGS; Keefe et al., 2004; Keefe et al., 2008), and the MATRICS Consensus Cognitive Battery (Nuechterlein & Green, 2006; Nuechterlein et al., 2008). It is believed that no clinical trial to date has reported both of these cognitive assessments within the same study. The BAGS and MATRICS batteries were administered two weeks following the screening visit (following the completion of the two-week placebo lead-in phase at Visit 2), and at two 4-week intervals thereafter (at midpoint following randomization at Visit 4 and at the final visit (Visit 6).
The BAGS cognitive battery utilizes the following assessments in the respective targeted domains (Keefe et al., 2004; Keefe et al., 2008): list learning (verbal memory), digit sequencing task (working memory), token motor task (motor speed), verbal fluency (processing speed), symbol coding (attention and processing speed), and the Tower of London test (executive functions/reasoning and problem solving). The MATRICS cognitive battery utilizes the following assessments: Trail Making Test, Part A and the symbol coding subtest of the BAGS (both assess speed of processing), the Hopkins Verbal Learning Test-Revised, immediate recall (three learning trials only) [verbal learning], the Wechsler Memory Scale, 3rd ed., spatial span subtest (working memory, nonverbal), the Letter-Number Span test (working memory, verbal), the Neuropsychological Assessment Battery, mazes subtest (reasoning and problem solving), the Brief Visuospatial Memory Test-Revised (visual learning), the Category Fluency Test (animal naming) [speed of processing], the Mayer-Salovey-Caruso Emotional Intelligence Test, managing emotions branch (social cognition), and the Continuous Performance Test, Identical Pairs version (attention/vigilance) Of note, the symbol coding subtest of the BAGS was administered only once per visit at Visits 2, 4, and 6, although it is a component of both the BAGS and MATRICS cognitive batteries, in order to avoid potentially confounding practice effects.

[1] = Week 0 to Week 8, listed as pregnenolone

SMILES: CC(=O)[C@H]1CC[C@H]2[C@@H]3CC=C4C[C@@H](O)CC[C@]4(C)[C@H]3CC[C@]12C [PG, pregnenolone]
- MATRICS/MCCB Composite score (Week 0 (baseline)): 29.00
- MATRICS/MCCB BACS, symbol coding subtest raw score (Week 0 (baseline)): 36.89
- MATRICS/MCCB Brief Visuospatial Memory Test-Rev. raw score (Week 0 (baseline)): 20.22
- MATRICS/MCCB Category fluency test, animal naming raw score (Week 0 (baseline)): 18.33
- MATRICS/MCCB Continuous Performance Test (CPT), Identical Pairs version-Average d′ raw score (Week 0 (baseline)): 1.42
- MATRICS/MCCB Hopkins Verbal Learning Test raw score (Week 0 (baseline)): 18.56
- MATRICS/MCCB Letter-Number Span test raw score (Week 0 (baseline)): 11.44
- MATRICS/MCCB Mayer-Salovey-Caruso Emotional Intelligence Test, managing emotions branch raw score (Week 0 (baseline)): 86.89
- MATRICS/MCCB Neuropsychological Assessment Battery, mazes subtest raw score (Week 0 (baseline)): 13.56
- MATRICS/MCCB Trail Making Test, Part A raw score (Week 0 (baseline)): 42.11
- MATRICS/MCCB Wechsler Memory Scale, 3rd ed., spatial span subtest raw score (Week 0 (baseline)): 13.11
- MATRICS/MCCB Attention/vigilance domain, change in T-score (Week 0 to Week 8): 7.56
- MATRICS/MCCB Attention/vigilance domain, difference PG vs placebo in T-score change (Week 0 to Week 8): 6.89
- MATRICS/MCCB Composite, change in T-score (Week 0 to Week 8): 7.00
- MATRICS/MCCB Reasoning and Problem Solving domain, change in T-score (Week 0 to Week 8): 6.22
- MATRICS/MCCB Reasoning and Problem Solving domain, difference PG vs placebo in T-score change (Week 0 to Week 8): 0.00
- MATRICS/MCCB Social cognition domain, change in T-score (Week 0 to Week 8): −0.89
- MATRICS/MCCB Social cognition domain, difference PG vs placebo in T-score change (Week 0 to Week 8): −9.22
- MATRICS/MCCB Speed of Processing domain, change in T-score (Week 0 to Week 8): 5.44
- MATRICS/MCCB Speed of Processing domain, difference PG vs placebo in T-score change (Week 0 to Week 8): 0.78
- MATRICS/MCCB Verbal learning domain, change in T-score (Week 0 to Week 8): 3.44
- MATRICS/MCCB Verbal learning domain, difference PG vs placebo in T-score change (Week 0 to Week 8): 2.67
- MATRICS/MCCB Visual learning domain, change in T-score (Week 0 to Week 8): 3.78
- MATRICS/MCCB Visual learning domain, difference PG vs placebo in T-score change (Week 0 to Week 8): −3.78
- MATRICS/MCCB Working memory domain, change in T-score (Week 0 to Week 8): 5.11
- MATRICS/MCCB Working memory domain, difference PG vs placebo in T-score change (Week 0 to Week 8): 4.00
- MATRICS/MCCB Composite, difference PG vs placebo in T-score change (Week 0 to Week 8): 0.00
- MATRICS/MCCB Composite, difference PG vs placebo in T-score change [1]: no difference
- MATRICS/MCCB Composite, change in T-score [1]: 7.00±8.87
- MATRICS/MCCB Composite score (Week 4): 33.78
- MATRICS/MCCB BACS, symbol coding subtest raw score (Week 4): 44.78
- MATRICS/MCCB Brief Visuospatial Memory Test-Rev. raw score (Week 4): 21.33
- MATRICS/MCCB Category fluency test, animal naming raw score (Week 4): 18.44
- MATRICS/MCCB Continuous Performance Test (CPT), Identical Pairs version-Average d′ raw score (Week 4): 1.37
- MATRICS/MCCB Hopkins Verbal Learning Test raw score (Week 4): 20.89
- MATRICS/MCCB Letter-Number Span test raw score (Week 4): 12.67
- MATRICS/MCCB Mayer-Salovey-Caruso Emotional Intelligence Test, managing emotions branch raw score (Week 4): 90.60
- MATRICS/MCCB Neuropsychological Assessment Battery, mazes subtest raw score (Week 4): 15.67
- MATRICS/MCCB Trail Making Test, Part A raw score (Week 4): 38.33
- MATRICS/MCCB Wechsler Memory Scale, 3rd ed., spatial span subtest raw score (Week 4): 14.33
- MATRICS/MCCB Composite score (Week 8): 36.00
- MATRICS/MCCB BACS, symbol coding subtest raw score (Week 8): 38.67
- MATRICS/MCCB Brief Visuospatial Memory Test-Rev. raw score (Week 8): 22.33
- MATRICS/MCCB Category fluency test, animal naming raw score (Week 8): 20.44
- MATRICS/MCCB Continuous Performance Test (CPT), Identical Pairs version-Average d′ raw score (Week 8): 1.91
- MATRICS/MCCB Hopkins Verbal Learning Test raw score (Week 8): 21.00
- MATRICS/MCCB Letter-Number Span test raw score (Week 8): 13.11
- MATRICS/MCCB Mayer-Salovey-Caruso Emotional Intelligence Test, managing emotions branch raw score (Week 8): 86.10
- MATRICS/MCCB Neuropsychological Assessment Battery, mazes subtest raw score (Week 8): 17.33
- MATRICS/MCCB Trail Making Test, Part A raw score (Week 8): 34.33/
- MATRICS/MCCB Wechsler Memory Scale, 3rd ed., spatial span subtest raw score (Week 8): 14.22
